# Source: ChEMBL document CHEMBL5335793, “PITB: A high affinity transthyretin aggregation inhibitor with optimal pharmacokinetic properties” (Eur J Med Chem, 2023)
# pKd: −log10 of the molar value.
# Experiments:
# Transthyretin [1] = biological target: T1, Transthyretin (Homo sapiens, UniProt P02766); experiment: Binding affinity to wild-type TTR (unknown origin) expressed in Escherichia coli BL21(DE3) assessed as change in enthalpy at 100 uM by ITC analysis
# Transthyretin [2] = biological target: T1, Transthyretin; experiment: Binding affinity to wild-type TTR (unknown origin) expressed in Escherichia coli BL21(DE3) assessed as change in entropy at 100 uM by ITC analysis
# [3] = tested on: Transthyretin (Homo sapiens), P02766 [V50M]; experiment: Binding affinity to TTR V30M mutant (unknown origin) expressed in Escherichia coli BL21(DE3) assessed as change in enthalpy at 100 uM by ITC analysis
# [4] = tested on: Transthyretin (Homo sapiens), P02766 [V50M]; experiment: Binding affinity to TTR V30M mutant (unknown origin) expressed in Escherichia coli BL21(DE3) assessed as change in entropy at 100 uM by ITC analysis
# [5] = tested on: Transthyretin (Homo sapiens), P02766 [V142I]; experiment: Binding affinity to TTR V122I mutant (unknown origin) expressed in Escherichia coli BL21(DE3) assessed as change in enthalpy at 100 uM by ITC analysis
# [6] = tested on: Transthyretin (Homo sapiens), P02766 [V142I]; experiment: Binding affinity to TTR V122I mutant (unknown origin) expressed in Escherichia coli BL21(DE3) assessed as change in entropy at 100 uM by ITC analysis
# [7] = tested on: Transthyretin (Homo sapiens), P02766 [V50M]; experiment: Stabilization of TTR V30M mutant in human plasma assessed as degree of tetramer stability at 19.1 uM incubated overnight followed by urea addition measured after 5 hrs by isoelectric focusing based densitometry relative to control; assay type: cell-free
# [8] = Tmax in CD-1 mouse at 10 mg/kg, po measured for 24 hrs by UPLC-MS/MS analysis; assay type: ADME, organism-based; details: in vivo
# [9] = Cmax in CD-1 mouse at 10 mg/kg, po measured for 24 hrs by UPLC-MS/MS analysis; assay type: ADME, organism-based; design: dose 10 mg/kg, time 24 hrs, route po; details: in vivo
# [10] = AUC (0 to 24 hrs) in CD-1 mouse at 10 mg/kg, po measured for 24 hrs by UPLC-MS/MS analysis; assay type: ADME, organism-based; design: time 24 hrs, dose 10 mg/kg, route po; details: in vivo
# [11] = Half life in CD-1 mouse at 10 mg/kg, po measured for 24 hrs by UPLC-MS/MS analysis; assay type: ADME, organism-based; details: in vivo
# [12] = Elimination rate constant in CD-1 mouse at 10 mg/kg, po measured for 24 hrs by UPLC-MS/MS analysis; assay type: ADME, organism-based; details: in vivo
# [13] = Volume of distribution in CD-1 mouse at 10 mg/kg, po measured for 24 hrs by UPLC-MS/MS analysis; assay type: ADME, organism-based; details: in vivo
# [14] = Clearance in CD-1 mouse at 10 mg/kg, po measured for 24 hrs by UPLC-MS/MS analysis; assay type: ADME, organism-based; details: in vivo
# Transthyretin [15] = biological target: T1, Transthyretin; experiment: Stabilization of wild-type TTR (unknown origin) expressed in Escherichia coli BL21(DE3) assessed as reduction in urea-induced tetramer dissociation at 3.6 uM preincubated for 30 mins followed by urea addition measured for 100 hrs by fluorescence based assay relative to control; design: scale not given: the % may be the effect or the level left; details: time 100.5 hrs
# [16] = tested on: Transthyretin (Homo sapiens), P02766 [V50M]; experiment: Stabilization of TTR V30M mutant (unknown origin) expressed in Escherichia coli BL21(DE3) assessed as reduction in urea-induced tetramer dissociation at 3.6 uM preincubated for 30 mins followed by urea addition measured for 100 hrs by fluorescence based assay relative to control; design: scale not given: the % may be the effect or the level left; details: time 100.5 hrs
# [17] = tested on: Transthyretin (Homo sapiens), P02766 [V142I]; experiment: Stabilization of TTR V122I mutant (unknown origin) expressed in Escherichia coli BL21(DE3) assessed as reduction in urea-induced tetramer dissociation at 3.6 uM preincubated for 30 mins followed by urea addition measured for 100 hrs by fluorescence based assay relative to control; design: scale not given: the % may be the effect or the level left; details: time 100.5 hrs
# [18] = Half life in CD-1 mouse at 1 mg/kg, iv measured for 24 hrs by UPLC-MS/MS analysis; assay type: ADME, organism-based; details: in vivo
# [19] = AUC (0 to 24 hrs) in CD-1 mouse at 1 mg/kg, iv by UPLC-MS/MS analysis; assay type: ADME, organism-based; design: time 24 hrs, dose 1 mg/kg, route iv; details: in vivo
# [20] = Cmax in CD-1 mouse at 1 mg/kg, iv measured for 24 hrs by UPLC-MS/MS analysis; assay type: ADME, organism-based; design: dose 1 mg/kg, time 24 hrs, route iv; details: in vivo
# Transthyretin [21] = biological target: T1, Transthyretin; experiment: Stabilization of wild-type TTR (unknown origin) expressed in Escherichia coli BL21(DE3) assessed as inhibition of TTR aggregation at 1:1 ratio of TTR:compound incubated for 30 mins followed by acidification measured for 72 hrs by turbidimetry relative to control; details: time 72.5 hrs
# Transthyretin [22] = biological target: T1, Transthyretin; experiment: Stabilization of wild-type TTR (unknown origin) expressed in Escherichia coli BL21(DE3) assessed as inhibition of TTR aggregation at 20 uM incubated for 30 mins followed by acidification measured for 72 hrs by turbidimetry relative to control; details: time 72.5 hrs
# [23] = tested on: Transthyretin (Homo sapiens), P02766 [V50M]; experiment: Stabilization of TTR V30M mutant (unknown origin) expressed in Escherichia coli BL21(DE3) assessed as inhibition of TTR aggregation at 20 uM incubated for 30 mins followed by acidification measured for 72 hrs by turbidimetry relative to control; details: time 72.5 hrs
# [24] = tested on: Transthyretin (Homo sapiens), P02766 [V142I]; experiment: Stabilization of TTR V122I mutant (unknown origin) expressed in Escherichia coli BL21(DE3) assessed as inhibition of TTR aggregation at 20 uM incubated for 30 mins followed by acidification measured for 72 hrs by turbidimetry relative to control; details: time 72.5 hrs
# Transthyretin [25] = biological target: T1, Transthyretin; experiment: Stabilization of wild-type TTR (unknown origin) expressed in Escherichia coli BL21(DE3) assessed as inhibition of TTR aggregation incubated for 30 mins followed by acidification measured for 72 hrs by turbidimetry relative to control; details: time 72.5 hrs
# Transthyretin [26] = biological target: T1, Transthyretin; experiment: Binding affinity to wild-type TTR (unknown origin) expressed in Escherichia coli BL21(DE3) assessed as dissociation constant by ITC analysis
# Transthyretin [27] = biological target: T1, Transthyretin; experiment: Binding affinity to wild-type TTR (unknown origin) expressed in Escherichia coli BL21(DE3) assessed as change in gibbs free energy at 100 uM by ITC analysis
# Transthyretin [28] = biological target: Transthyretin (Homo sapiens, UniProt P02766, V50M); experiment: Binding affinity to TTR V30M mutant (unknown origin) expressed in Escherichia coli BL21(DE3) assessed as dissociation constant by ITC analysis
# [29] = tested on: Transthyretin (Homo sapiens), P02766 [V50M]; experiment: Binding affinity to TTR V30M mutant (unknown origin) expressed in Escherichia coli BL21(DE3) assessed as change in gibbs free energy at 100 uM by ITC analysis
# Transthyretin [30] = biological target: Transthyretin (Homo sapiens, UniProt P02766, V142I); experiment: Binding affinity to TTR V122I mutant (unknown origin) expressed in Escherichia coli BL21(DE3) assessed as dissociation constant by ITC analysis
# [31] = tested on: Transthyretin (Homo sapiens), P02766 [V142I]; experiment: Binding affinity to TTR V122I mutant (unknown origin) expressed in Escherichia coli BL21(DE3) assessed as change in gibbs free energy at 100 uM by ITC analysis
# Transthyretin [32] = biological target: T1, Transthyretin; experiment: Potency index, ratio of Kd for Tolcapone to test compound for wild-type TTR (unknown origin) expressed in Escherichia coli BL21(DE3) assessed as dissociation constant by ITC analysis
# [33] = tested on: Transthyretin (Homo sapiens), P02766 [V142I]; experiment: Potency index, ratio of Kd for Tolcapone to test compound for TTR V122I mutant (unknown origin) expressed in Escherichia coli BL21(DE3) assessed as dissociation constant by ITC analysis
# [34] = tested on: Transthyretin (Homo sapiens), P02766 [V50M]; experiment: Potency index, ratio of Kd for Tolcapone to test compound for TTR V30M mutant (unknown origin) expressed in Escherichia coli BL21(DE3) assessed as dissociation constant by ITC analysis
# Transthyretin [35] = biological target: T1, Transthyretin; experiment: Displacement of [125I]-T4 from TTR in human plasma incubated for 1 hr by densitometry relative to control; assay type: cell-free
# [36] = tested on: Transthyretin (Homo sapiens), P02766 [V50M]; experiment: Displacement of [125I]-T4 from TTR V30M mutant in human plasma incubated for 1 hr by densitometry relative to control; assay type: cell-free
# HeLa = experiment: Cytotoxicity against human HeLa cells assessed as cell viability upto 100 uM incubated for 72 hrs by PrestoBlue assay; assay type: toxicity, cell-based
# HepG2 = experiment: Cytotoxicity against human HepG2 cells assessed as cell viability upto 100 uM incubated for 72 hrs by PrestoBlue assay; assay type: toxicity, cell-based; details: hepg2, 72 h
# MRC5 = experiment: Cytotoxicity against human MRC5 cells assessed as cell viability upto 100 uM incubated for 72 hrs by PrestoBlue assay; assay type: toxicity, cell-based; details: mrc5, 72 h
# [37] = Elimination rate constant in CD-1 mouse at 1 mg/kg, iv measured for 24 hrs by UPLC-MS/MS analysis; assay type: ADME, organism-based; details: in vivo
# [38] = Volume of distribution in CD-1 mouse at 1 mg/kg, iv measured for 24 hrs by UPLC-MS/MS analysis; assay type: ADME, organism-based; details: in vivo
# [39] = Clearance in CD-1 mouse at 1 mg/kg, iv measured for 24 hrs by UPLC-MS/MS analysis; assay type: ADME, organism-based; details: in vivo
# [40] = Oral bioavailability in CD-1 mouse at 10 mg/kg measured for 24 hrs by UPLC-MS/MS analysis; assay type: ADME, organism-based; details: in vivo
compound,measurement,setting,value
Cc1ccc(C(=O)c2cc(O)c(O)c([N+](=O)[O-])c2)cc1 [TOLCAPONE],deltaH,Transthyretin [1],-13.6 kcal/mol
same,-TdeltaS,Transthyretin [2],3.6 kcal/mol
same,deltaH,[3],-13.8 kcal/mol
same,-TdeltaS,[4],5.1 kcal/mol
same,deltaH,[5],-12.2 kcal/mol
same,-TdeltaS,[6],2.2 kcal/mol
same,Activity,[7],4.9%
same,Tmax,[8],< 0.25 h
same,Cmax,[9],7620 ng/mL
same,AUC(0-t) at 24 h,[10],11900 ng·h/mL
same,half-life,[11],1.4 h
same,k el at 24 h,[12],0.000139 s⁻¹
same,Vd,[13],1.6 L/kg
same,CL/F,[14],13.3 mL/min/kg
COc1cc(C(=O)c2cc(O)cc(F)c2)cc([N+](=O)[O-])c1O,Activity,Transthyretin [15],94.1%
same,Activity,[16],79.2%
same,Activity,[17],92.5%
same,half-life,[18],3.5 h
same,AUC(0-t) at 24 h,[19],3160 ng·h/mL
same,Cmax,[20],4040 ng/mL
same,inhibition,Transthyretin [21],> 60%
same,inhibition,Transthyretin [22],89.2%
same,inhibition,[23],92%
same,inhibition,[24],< 90%
same,inhibition,Transthyretin [25],> 87.5%
same,pKd,Transthyretin [26],7.80
same,deltaG,Transthyretin [27],-10.6 kcal/mol
same,deltaH,Transthyretin [1],-13.4 kcal/mol
same,-TdeltaS,Transthyretin [2],2.8 kcal/mol
same,pKd,Transthyretin [28],7.44
same,deltaG,[29],-10.2 kcal/mol
same,deltaH,[3],-11 kcal/mol
same,-TdeltaS,[4],0.8 kcal/mol
same,pKd,Transthyretin [30],7.85
same,deltaG,[31],-10.7 kcal/mol
same,deltaH,[5],-16.1 kcal/mol
same,-TdeltaS,[6],5.4 kcal/mol
same,Ratio,Transthyretin [32],> 3
same,Ratio,[33],> 3
same,Ratio,[34],> 12
same,Activity,Transthyretin [35],97.3%
same,Activity,[36],94.5%
same,Activity,[7],17.4%
same,Activity,HeLa,Non-Toxic
same,Activity,HepG2,Non-Toxic
same,Activity,MRC5,Non-Toxic
same,Tmax,[8],0.5 h
same,Cmax,[9],4180 ng/mL
same,AUC(0-t) at 24 h,[10],26900 ng·h/mL
same,half-life,[11],10.1 h
same,k el at 24 h,[37],5.58e-05 s⁻¹
same,Vd,[38],1.57 L/kg
same,clearance,[39],5.25 mL/min/kg
same,k el at 24 h,[12],1.92e-05 s⁻¹
same,Vd,[13],4.482 L/kg
same,CL/F,[14],5.13 mL/min/kg
same,bioavailability,[40],85.1%
